# Assay results as given in ChEMBL document CHEMBL4765420, “Design, synthesis and biological evaluation of novel HDAC inhibitors with improved pharmacokinetic profile in breast cancer” (Eur J Med Chem, 2020).
# pIC50: −log10 of the molar value. Active and inactive are the calls of the source. The rule behind the calls is not given here.
# How the values were obtained:
# MDA-MB-231 [1] = assay: Inhibition of cell migration in human MDA-MB-231 cells measured after 24 hrs by phase-contrast microscopy based wound healing assay; format: functional
# MDA-MB-231 [2] = assay: Antiproliferative activity against human MDA-MB-231 cells measured after 48 hrs by MTT assay; format: functional, cell-based; settings: MDA-MB-231, 48 h
# [3] = target: T1, Protein deacetylase HDAC6 (Homo sapiens) (UniProt Q9UBN7); assay: Inhibition of HDAC6 in human MDA-MB-231 cells assessed as increase in alpha-tubulin acetylation at 2.5 to 10 uM measured after 24 hrs by Western blot analysis; format: cell-based; settings: dose 2.5-10 µM
# T1 sequence (whole entry): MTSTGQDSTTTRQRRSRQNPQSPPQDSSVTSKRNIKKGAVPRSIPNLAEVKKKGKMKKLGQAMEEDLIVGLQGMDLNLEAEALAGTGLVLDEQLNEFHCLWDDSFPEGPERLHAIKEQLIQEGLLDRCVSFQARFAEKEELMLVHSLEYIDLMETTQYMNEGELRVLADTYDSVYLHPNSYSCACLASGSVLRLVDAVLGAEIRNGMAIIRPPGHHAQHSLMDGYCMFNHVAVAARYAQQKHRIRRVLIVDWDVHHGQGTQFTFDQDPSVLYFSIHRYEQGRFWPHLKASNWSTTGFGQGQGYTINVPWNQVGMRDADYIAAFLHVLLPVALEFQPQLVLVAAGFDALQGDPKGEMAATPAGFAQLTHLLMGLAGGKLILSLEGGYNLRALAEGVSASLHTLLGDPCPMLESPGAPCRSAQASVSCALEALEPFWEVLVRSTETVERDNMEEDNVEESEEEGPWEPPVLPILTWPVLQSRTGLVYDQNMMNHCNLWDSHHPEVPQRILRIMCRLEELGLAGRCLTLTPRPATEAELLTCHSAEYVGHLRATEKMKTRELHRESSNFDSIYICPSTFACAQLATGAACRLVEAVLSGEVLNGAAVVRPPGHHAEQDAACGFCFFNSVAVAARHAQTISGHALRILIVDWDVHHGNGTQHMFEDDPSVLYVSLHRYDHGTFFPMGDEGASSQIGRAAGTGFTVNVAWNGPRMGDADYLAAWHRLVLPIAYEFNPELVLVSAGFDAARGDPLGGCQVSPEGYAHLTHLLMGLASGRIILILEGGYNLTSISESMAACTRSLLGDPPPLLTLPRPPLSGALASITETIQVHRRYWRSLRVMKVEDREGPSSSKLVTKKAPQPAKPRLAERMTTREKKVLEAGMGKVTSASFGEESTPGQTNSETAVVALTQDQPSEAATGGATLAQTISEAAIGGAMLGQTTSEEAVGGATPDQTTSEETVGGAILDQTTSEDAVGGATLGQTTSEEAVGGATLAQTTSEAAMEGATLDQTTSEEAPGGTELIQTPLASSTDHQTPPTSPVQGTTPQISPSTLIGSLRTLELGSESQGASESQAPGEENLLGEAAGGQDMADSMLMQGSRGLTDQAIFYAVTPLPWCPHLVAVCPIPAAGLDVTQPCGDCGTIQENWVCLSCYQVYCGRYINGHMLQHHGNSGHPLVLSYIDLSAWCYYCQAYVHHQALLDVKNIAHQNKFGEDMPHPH
# MDA-MB-231 [4] = assay: Induction of apoptosis in human MDA-MB-231 cells assessed as increase in cleaved caspase-8 expression at 2.5 to 10 uM measured after 24 hrs by Western blot analysis; format: functional, cell-based; settings: dose 2.5-10 µM
# MDA-MB-231 [5] = assay: Induction of autophagy in human MDA-MB-231 cells assessed as decrease in SQSTM1/p62 expression at 2.5 to 10 uM measured after 24 hrs by Western blot analysis; format: functional, cell-based; settings: dose 2.5-10 µM
compound,measurement,setting,value
COc1cc(OC)c2c(N3CCS(=O)(=O)CC3)nc(-c3cc(C)c(OCCCCCC(=O)NO)c(C)c3)nc2c1,inhibition,MDA-MB-231 [1],Dose-dependent effect
same,pIC50,MDA-MB-231 [2],5.82
same,inhibition,[3],Active
same,Activity,MDA-MB-231 [4],Active
same,Activity,MDA-MB-231 [5],Active
